Data reported in publication PMC6523531, “Mechanistic Studies on the Absorption-Enhancing Effects of Gemini Surfactant on the Intestinal Absorption of Poorly Absorbed Hydrophilic Drugs in Rats” (Pharmaceutics, 2019).

Experiments:
Caco-2 cell monolayers = assay: Transepithelial electrical resistance (TEER) of Caco-2 cell monolayers; type: cell-based, Human
Experimental: Caco-2 cells (passage 45) were cultured in 175-cm^2 culture flask (Thermo Fisher Scientific™, Waltham, MA, USA). The culture medium consisted of DMEM containing 10% FBS, 0.1 mM MEM–NEAA, 2 mM glutamine, 100 U/mL penicillin, and 100 µg/mL streptomycin [30]. Cells were cultured in a humidified atmosphere of 5% CO2 at 37 °C. The culture medium was changed every two days. When the cultured Caco-2 cells became sub-confluent, they were seeded onto 12-mm Transwell® with 0.4-µm pore polycarbonate membrane inserts (Corning Inc., New York, NY, USA) at a density of 1 × 10^5 cells/insert. The transepithelial transport studies were performed when the transepithelial electrical resistance (TEER) values were more than 500 Ω·cm^2 (i.e., after 21 days). Briefly, after removing the incubation medium by aspiration, the apical and basal sides were washed thrice by Hank’s Balanced Salt (HBSS) solution (pH 7.4). The cells were incubated in HBSS (pH 6.0) for the apical side and HBSS (pH 7.4) for the basal side for 20 min at 37 °C. HBSS supplemented with 1 mg/mL glucose was used in all cell culture experiments. After removing the washing solution by aspiration, 500 µL of 10 µM CF in a HBSS (pH 6.0) solution with or without various concentrations (0.001% v/v, 0.01% v/v, 0.025% v/v, 0.05% v/v, and 0.1% v/v) of SLG-30, 0.1% (w/v) and 1% (w/v) NaGC or 0.05% (w/v) sodium laurate were added to the apical side at zero time, whereas precisely 1500 µL of HBSS (pH 7.4) was added to the basal side at 37 °C. The cells were kept at 37 °C and 5% CO2 and were continuously agitated on a shaker during the transport experiments.
The TEER values were measured by Millicell® (ERS-2 Volt-Ohm Meter, Billerica, MA, USA) at the predetermined times up to 24 h, and the initial values were considered as 100%. The samples from the basal side were withdrawn at predetermined time points up to 24 h. The samples were replaced with an equal volume of HBSS (pH 7.4). CF was determined as previously mentioned. The apparent permeability coefficients Papp (cm/s) for the transported CF was determined by the following equation: Papp=dXR/dt×1/A×1/C0 where Papp is the apparent permeability coefficient in centimeters per second, XR is the amount of CF in moles in the receptor side, dXR/dt is the flux across the monolayer, A is the diffusion area (i.e., in square centimeters), and C0 is the initial concentration of CF in the donor side in moles per milliliter.

Caco-2 cells = assay: Caco-2 cell damage by LDH release; type: cell-based, Human
Experimental: After the transport studies were over, the solution on the apical side of each well was collected. Cell injury caused by SLG-30 was determined by tracking the LDH release. The cell precipitate and the monolayers left on the filters were solubilized with 1% (v/v) Triton X-100. The solutions from apical sides and the lysates were centrifuged for 7 min at 200× g at a temperature of 4 °C. The activities of LDH in the supernatant were measured. (LDHrelease) stands for the activity of the LDH released into the apical side in the existence of SLG-30. (LDHcell) stands for the activity of the LDH obtained from the cell lysate. LDHreleased% was calculated by the following equation:LDHrelease% = LDHrelease × 100/(LDHrelease + LDHcells)

In the case of `CCCCCCCCCCCC(=O)NC(CCC(=O)NCCCCC(NC(=O)CCC(NC(=O)CCCCCCCCCCC)C(=O)O)C(=O)O)C(=O)O` (centres unmarked) [SLG-30, sodium dilauramidoglutamide lysine], the TEER values (Caco-2 cell monolayers; SLG-30 at all concentrations 0.001-0.1% (v/v), first hour) is reported as “significant decrease”, the TEER recovery (Caco-2 cell monolayers; higher concentrations of SLG-30, without removing SLG-30, up to 24 h) is reported as “did not recover to the baseline” and the TEER recovery (Caco-2 cell monolayers; lower concentrations of SLG-30, without removing SLG-30, up to 24 h) is reported as “started to recover”. The “activity of LDH released from Caco-2 cells vs control” value (Caco-2 cells; SLG-30 0.001-0.1% (v/v), after the transport studies, n = 6) was “did not increase” and the Caco-2 cell injury (Caco-2 cells; SLG-30 at concentrations used in in vivo studies) was “the cells were detached and severely injured”.
